In US9701664B2, “Fused 1,4-dihydrodioxin derivatives as inhibitors of heat shock transcription factor 1” (Cancer Research Technology Limited, priority 2013, dated 2017):
Where two headings read alike, the source gives them in different places.

Legend:
HSP72 in SK-OV-3 cells = assay: Cell-based ELISA (Cellisa) assay, SK-OV-3 cells: inhibition of 17-AAG-induced HSP72; conditions: SK-OV-3 cells (Examples 169-218)
Protocol: U2OS cells (5-8×10^4 cells/mL) or SK-OV-3 cells (5-8×10^4 cells/mL) were seeded into 96-well plates and incubated at 37° C. for 48 h. Compounds were then added at a range of concentrations and incubated for 1 h before addition of 17-AAG (250 nM). Cells were then incubated for 18 h. The medium was removed washed 2× with PBS and cells were then fixed with fixing solution (4% paraformaldehyde, 0.3% TritonX-100 in PBS) for 30 min at 4° C. The plates were then washed 2× with PBS before blocking with 5% milk for 30 min at 37° C. After washing the plates 4× with 0.1% Tween-20/deionised water, HSP72 antibody (SPA-810, Enzo Life) was added for 1.5 h at 37° C. Following 4× washes, the plates were incubated with europium-labelled anti-mouse antibody (0.6 ug/ml) in Delfia assay buffer (Perkin Elmer) for 1 h at 37° C. After washing the plates, Delfia enhancement solution was added, shaken for 10 min before reading in the Envision plate reader (Perkin-Elmer) with excitation at 340 nm and emission at 615 nm. The plates were washed again before protein determination using the bicinchoninic acid assay (BCA assay, Pierce Biotechnology). The europium counts were normalised for the amount of protein in each well. The 50% inhibitory concentration value of the compound was then calculated.

U2OS cells = assay: Titre Blue cell viability assay, U2OS cells; assay type: cell-based
HSP72 in U2OS cells = assay: Cell-based ELISA (Cellisa) assay, U2OS cells: inhibition of 17-AAG-induced HSP72; conditions: U2OS cells (Examples 1-168)

| Compound | IC50 (U2OS cells; Homo sapiens, U2OS) [nM] | IC50 (HSP72 in U2OS cells; Homo sapiens) [nM] | further results |
| --- | --- | --- | --- |
| 2-((4-(sec-butyl)piperazin-111)methyl)-N-(2-chloro-5-(2,3-dihydrobenzo[b][1,4]dioxine-6-carboxamido)phenyl)quinoline-6-carboxamide [Example 193] | – | – | IC50 (HSP72 in SK-OV-3 cells): 66 nM |
| 2-((4-(sec-butyl)piperazin-111)methyl)-N-(5-(2,3-dihydrobenzo[b][1,4]dioxine-6-carboxamido)-2-fluorophenyl)quinoline-6-carboxamide [Example 179] | – | – | IC50 (HSP72 in SK-OV-3 cells): 19 nM |
| 2-((4-(tert-butyl)piperazin-111)methyl)-N-(5-(2,3-dihydrobenzo[b][1,4]dioxine-6-carboxamido)-2-fluorophenyl)quinoline-6-carboxamide [Example 177] | – | – | IC50 (HSP72 in SK-OV-3 cells): 70 nM |
| CC1CCCN1Cc1ccc2cc(C(=O)Nc3cc(NC(=O)c4ccc5c(c4)OCCO5)ccc3F)ccc2n1 (racemic) [Example 190, (rac)-N-(5-(2,3-dihydrobenzo[b][1,4]dioxine-6-carboxamido)-2-fluorophenyl)-2-((2-methylpyrrolidin-1-yl)methyl)quinoline-6-carboxamide] | – | – | IC50 (HSP72 in SK-OV-3 cells; Homo sapiens): 267 nM |
| Cc1ccc(NC(=O)c2ccc3c(c2)OCCO3)cc1NC(=O)c1ccc2nc(COC(C)C)ccc2c1 [Example 145, N-(5-(2,3-dihydrobenzo[b][1,4]dioxine-6-carboxamido)-2-methylphenyl)-2-(isopropoxymethyl)quinoline-6-carboxamide] | 17 | 64 | – |
| Cc1ccc(NC(=O)c2ccc3c(c2)OCCO3)cc1NC(=O)c1ccc2nc(COCC3CCCO3)ccc2c1 (stereo not shown) [Example 146, N-(5-(2,3-dihydrobenzo[b][1,4]dioxine-6-carboxamido)-2-methylphenyl)-2-(((tetrahydrofuran-2-yl)methoxy)methyl)quinoline-6-carboxamide] | 20 | 77 | – |
| Cc1ccc(NC(=O)c2ccc3c(c2)OCCO3)cc1NC(=O)c1ccc2nc(COCCN3CCCC3)ccc2c1 [Example 147, N-(5-(2,3-dihydrobenzo[b][1,4]dioxine-6-carboxamido)-2-methylphenyl)-2-((2-(pyrrolidin-1-yl)ethoxy)methyl)quinoline-6-carboxamide] | 54 | 83 | – |
| Cc1ccc(NC(=O)c2ccc3c(c2)OCCO3)cc1NC(=O)c1cnc2cccc(NCCN3CCCC3)c2c1 [Example 148, N-(5-(2,3-dihydrobenzo[b][1,4]dioxine-6-carboxamido)-2-methylphenyl)-5-((2-(pyrrolidin-1-yl)ethyl)amino)quinoline-3-carboxamide] | 104 | 88 | – |
| O=C(Nc1ccc(Cl)c(NC(=O)c2ccc3ncccc3c2)c1)c1ccc2c(c1)OCCO2 [Example 149, N-(2-chloro-5-(2,3-dihydrobenzo[b][1,4]dioxine-6-carboxamido)phenyl)quinoline-6-carboxamide] | 20 | 63 | – |
| Cc1ccc(NC(=O)c2ccc3c(c2)OCCO3)cc1NC(=O)c1ccc2nc(COCC(C)C)ccc2c1 [Example 151, N-(5-(2,3-dihydrobenzo[b][1,4]dioxine-6-carboxamido)-2-methylphenyl)-2-(isobutoxymethyl)quinoline-6-carboxamide] | 26 | 100 | – |
| Cc1ccc(NC(=O)c2ccc3c(c2)OCCO3)cc1NC(=O)c1ccc2c(c1)CCC(C)N2 (stereo not shown) [Example 152, N-(5-(2,3-dihydrobenzo[b][1,4]dioxine-6-carboxamido)-2-methylphenyl)-2-methyl-1,2,3,4-tetrahydroquinoline-6-carboxamide] | 153 | 105 | – |
| Cc1ccc(NC(=O)c2ccc3c(c2)OCCO3)cc1NC(=O)c1ccc2cnc(OCCN3CCCC3)cc2c1 [Example 156, N-(5-(2,3-dihydrobenzo[b][1,4]dioxine-6-carboxamido)-2-methylphenyl)-3-(2-(pyrrolidin-1-yl)ethoxy)isoquinoline-6-carboxamide] | 79 | 161 | – |
| Cc1ccc(NC(=O)c2ccc3c(c2)OCCO3)cc1NC(=O)c1cnc2cccc(CCN3CCCC3)c2c1 [Example 158, N-(5-(2,3-dihydrobenzo[b][1,4]dioxine-6-carboxamido)-2-methylphenyl)-5-(2-(pyrrolidin-1-yl)ethyl)quinoline-3-carboxamide] | 202 | 239 | – |
| C=CCc1cccc2ncc(C(=O)Nc3cc(NC(=O)c4ccc5c(c4)OCCO5)ccc3C)cc12 [Example 161, 5-allyl-N-(5-(2,3-dihydrobenzo[b][1,4]dioxine-6-carboxamido)-2-methylphenyl)quinoline-3-carboxamide] | 557 | 911 | – |
| Cc1ccc(NC(=O)c2ccc3c(c2)OCCO3)cc1NC(=O)c1ccc2nc(N(C)CCC(=O)O)ccc2c1 [Example 163, 3-((6-((5-(2,3-dihydrobenzo[b][1,4]dioxine-6-carboxamido)-2-methylphenyl)carbamoyl)quinolin-2-yl)(methyl)amino)propanoic acid] | 1850 | 1130 | – |
| COCc1ccc(NC(=O)c2ccc3c(c2)OCCO3)cc1NC(=O)c1ccc2nc(C)ccc2c1 [Example 166, N-(5-(2,3-dihydrobenzo[b][1,4]dioxine-6-carboxamido)-2-(methoxymethyl)phenyl)-2-methylquinoline-6-carboxamide] | 68 | 298 | – |
| Cc1ccc2cc(C(=O)Nc3cc(NC(=O)c4ccc5c(c4)OCCO5)ccc3CO)ccc2n1 [Example 167, N-(5-(2,3-dihydrobenzo[b][1,4]dioxine-6-carboxamido)-2-(hydroxymethyl)phenyl)-2-methylquinoline-6-carboxamide] | 86 | 176 | – |
| Cc1ccc(NC(=O)c2ccc3c(c2)OCCO3)cc1NC(=O)c1ccc2c(c1)CS(=O)(=O)N2C [Example 168, N-(5-(2,3-dihydrobenzo[b][1,4]dioxine-6-carboxamido)-2-methylphenyl)-1-methyl-1,3-dihydrobenzo[c]isothiazole-5-carboxamide 2,2-dioxide] | 19 | 14 | – |
| CCN1CCN(Cc2ccc3cc(C(=O)Nc4cc(NC(=O)c5ccc6c(c5)OCCO6)ccc4F)ccc3n2)CC1 [Example 169, N-(5-(2,3-dihydrobenzo[b][1,4]dioxine-6-carboxamido)-2-fluorophenyl)-2-((4-ethylpiperazin-1-yl)methyl)quinoline-6-carboxamide] | – | – | IC50 (HSP72 in SK-OV-3 cells; Homo sapiens): 56 nM |
| O=C(Nc1ccc(F)c(NC(=O)c2ccc3nc(CN4CCCC4)ccc3c2)c1)c1ccc2c(c1)OCCO2 [Example 170, N-(5-(2,3-dihydrobenzo[b][1,4]dioxine-6-carboxamido)-2-fluorophenyl)-2-(pyrrolidin-1-ylmethyl)quinoline-6-carboxamide] | – | – | IC50 (HSP72 in SK-OV-3 cells; Homo sapiens): 379 nM |
| N-(5-(2,3-dihydrobenzo[b][1,4]dioxine-6-carboxamido)-2-methylphenyl)-34(2-methoxyethyl)amino)-2-(2-(pyrrolidin-1-yl)ethoxy)quinoline-6-carboxamide [Example 150] | – | – | IC50 (U2OS cells): 86 nM; IC50 (HSP72 in U2OS cells): 98 nM |
| N-(5-amino-2-((dimethylamino)methyl)phenyl)-2-methylquinoline-6-carboxamide [Example 165] | – | – | IC50 (U2OS cells): 1 nM; IC50 (HSP72 in U2OS cells): 5 nM |
| tert-butyl (44(64(5-(2,3-dihydrobenzo[b][1,4]dioxine-6-carboxamido)-2-methylphenyl)carbamoyl)quinolin-2-yl)oxy)butyl)carbamate [Example 164] | – | – | IC50 (U2OS cells): 859 nM; IC50 (HSP72 in U2OS cells): 1540 nM |
